Assays:
Test in all cases: KINOMEscan competition binding
Settings in all cases: compound 10.0 µM
[1] = test system: BMX (human), P51813 [V600E]
[2] = test system: EGFR (human), P00533 [A750P; 747-749 del]
[3] = test system: EGFR (human), P00533 [G719C]
[4] = test system: FGFR3 (human), P22607 [G697C]
[5] = test system: KIT (human), P10721 [A829P]
[6] = test system: KIT (human), P10721 [D816H]
[7] = test system: LRRK2 (human), Q5S007 [G2019S]
[8] = test system: MET (human), P08581 [M1250T]
[9] = test system: PIK3CA (human), P42336 [E542K]
Chain of PIK3CA (human), P42336 [E542K] (P42336 whole entry E542K, looked up): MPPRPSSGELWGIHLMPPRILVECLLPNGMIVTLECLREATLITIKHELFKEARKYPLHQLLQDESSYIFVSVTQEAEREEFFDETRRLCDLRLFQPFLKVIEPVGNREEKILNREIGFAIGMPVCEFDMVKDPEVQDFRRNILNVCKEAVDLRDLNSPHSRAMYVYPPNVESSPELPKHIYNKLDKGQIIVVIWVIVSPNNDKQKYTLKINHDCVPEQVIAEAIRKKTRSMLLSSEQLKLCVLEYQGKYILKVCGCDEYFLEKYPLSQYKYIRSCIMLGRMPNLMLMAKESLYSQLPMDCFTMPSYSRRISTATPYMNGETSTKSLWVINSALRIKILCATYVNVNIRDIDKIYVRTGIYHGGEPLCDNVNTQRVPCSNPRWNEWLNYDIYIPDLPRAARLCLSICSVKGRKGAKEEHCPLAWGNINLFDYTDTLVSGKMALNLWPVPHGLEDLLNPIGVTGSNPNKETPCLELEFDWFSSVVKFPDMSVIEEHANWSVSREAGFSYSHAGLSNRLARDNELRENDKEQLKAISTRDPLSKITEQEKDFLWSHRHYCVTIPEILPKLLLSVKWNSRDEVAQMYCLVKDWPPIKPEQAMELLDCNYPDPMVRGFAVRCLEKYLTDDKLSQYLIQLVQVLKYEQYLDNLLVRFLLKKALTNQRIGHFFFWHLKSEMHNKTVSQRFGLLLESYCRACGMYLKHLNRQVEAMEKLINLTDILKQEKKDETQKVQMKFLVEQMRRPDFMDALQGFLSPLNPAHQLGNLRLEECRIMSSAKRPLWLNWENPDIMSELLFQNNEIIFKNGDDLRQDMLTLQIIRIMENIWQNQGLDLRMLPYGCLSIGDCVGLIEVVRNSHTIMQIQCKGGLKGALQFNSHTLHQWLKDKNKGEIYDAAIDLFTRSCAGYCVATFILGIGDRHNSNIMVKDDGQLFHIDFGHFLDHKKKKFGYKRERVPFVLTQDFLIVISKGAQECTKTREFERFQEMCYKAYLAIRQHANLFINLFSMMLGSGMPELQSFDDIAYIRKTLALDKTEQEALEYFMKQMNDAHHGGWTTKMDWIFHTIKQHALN

[10] = test system: PIK3CA (human), P42336 [H1047L]
[11] = test system: RET (human), P07949 [V804L]
[12] = test system: FLT3 (human), P36888 [D835Y]
[13] = test system: PIK3CA (human), P42336 [M1043I]
Chain of PIK3CA (human), P42336 [M1043I] (P42336 whole entry M1043I, looked up): as the sequence (P42336 whole entry E542K, looked up) above, with K542E, M1043I counted along it

[14] = test system: EGFR (human), P00533 [L858R]

Chain of LRRK2 (human), Q5S007 [G2019S] (Q5S007 whole entry G2019S, looked up): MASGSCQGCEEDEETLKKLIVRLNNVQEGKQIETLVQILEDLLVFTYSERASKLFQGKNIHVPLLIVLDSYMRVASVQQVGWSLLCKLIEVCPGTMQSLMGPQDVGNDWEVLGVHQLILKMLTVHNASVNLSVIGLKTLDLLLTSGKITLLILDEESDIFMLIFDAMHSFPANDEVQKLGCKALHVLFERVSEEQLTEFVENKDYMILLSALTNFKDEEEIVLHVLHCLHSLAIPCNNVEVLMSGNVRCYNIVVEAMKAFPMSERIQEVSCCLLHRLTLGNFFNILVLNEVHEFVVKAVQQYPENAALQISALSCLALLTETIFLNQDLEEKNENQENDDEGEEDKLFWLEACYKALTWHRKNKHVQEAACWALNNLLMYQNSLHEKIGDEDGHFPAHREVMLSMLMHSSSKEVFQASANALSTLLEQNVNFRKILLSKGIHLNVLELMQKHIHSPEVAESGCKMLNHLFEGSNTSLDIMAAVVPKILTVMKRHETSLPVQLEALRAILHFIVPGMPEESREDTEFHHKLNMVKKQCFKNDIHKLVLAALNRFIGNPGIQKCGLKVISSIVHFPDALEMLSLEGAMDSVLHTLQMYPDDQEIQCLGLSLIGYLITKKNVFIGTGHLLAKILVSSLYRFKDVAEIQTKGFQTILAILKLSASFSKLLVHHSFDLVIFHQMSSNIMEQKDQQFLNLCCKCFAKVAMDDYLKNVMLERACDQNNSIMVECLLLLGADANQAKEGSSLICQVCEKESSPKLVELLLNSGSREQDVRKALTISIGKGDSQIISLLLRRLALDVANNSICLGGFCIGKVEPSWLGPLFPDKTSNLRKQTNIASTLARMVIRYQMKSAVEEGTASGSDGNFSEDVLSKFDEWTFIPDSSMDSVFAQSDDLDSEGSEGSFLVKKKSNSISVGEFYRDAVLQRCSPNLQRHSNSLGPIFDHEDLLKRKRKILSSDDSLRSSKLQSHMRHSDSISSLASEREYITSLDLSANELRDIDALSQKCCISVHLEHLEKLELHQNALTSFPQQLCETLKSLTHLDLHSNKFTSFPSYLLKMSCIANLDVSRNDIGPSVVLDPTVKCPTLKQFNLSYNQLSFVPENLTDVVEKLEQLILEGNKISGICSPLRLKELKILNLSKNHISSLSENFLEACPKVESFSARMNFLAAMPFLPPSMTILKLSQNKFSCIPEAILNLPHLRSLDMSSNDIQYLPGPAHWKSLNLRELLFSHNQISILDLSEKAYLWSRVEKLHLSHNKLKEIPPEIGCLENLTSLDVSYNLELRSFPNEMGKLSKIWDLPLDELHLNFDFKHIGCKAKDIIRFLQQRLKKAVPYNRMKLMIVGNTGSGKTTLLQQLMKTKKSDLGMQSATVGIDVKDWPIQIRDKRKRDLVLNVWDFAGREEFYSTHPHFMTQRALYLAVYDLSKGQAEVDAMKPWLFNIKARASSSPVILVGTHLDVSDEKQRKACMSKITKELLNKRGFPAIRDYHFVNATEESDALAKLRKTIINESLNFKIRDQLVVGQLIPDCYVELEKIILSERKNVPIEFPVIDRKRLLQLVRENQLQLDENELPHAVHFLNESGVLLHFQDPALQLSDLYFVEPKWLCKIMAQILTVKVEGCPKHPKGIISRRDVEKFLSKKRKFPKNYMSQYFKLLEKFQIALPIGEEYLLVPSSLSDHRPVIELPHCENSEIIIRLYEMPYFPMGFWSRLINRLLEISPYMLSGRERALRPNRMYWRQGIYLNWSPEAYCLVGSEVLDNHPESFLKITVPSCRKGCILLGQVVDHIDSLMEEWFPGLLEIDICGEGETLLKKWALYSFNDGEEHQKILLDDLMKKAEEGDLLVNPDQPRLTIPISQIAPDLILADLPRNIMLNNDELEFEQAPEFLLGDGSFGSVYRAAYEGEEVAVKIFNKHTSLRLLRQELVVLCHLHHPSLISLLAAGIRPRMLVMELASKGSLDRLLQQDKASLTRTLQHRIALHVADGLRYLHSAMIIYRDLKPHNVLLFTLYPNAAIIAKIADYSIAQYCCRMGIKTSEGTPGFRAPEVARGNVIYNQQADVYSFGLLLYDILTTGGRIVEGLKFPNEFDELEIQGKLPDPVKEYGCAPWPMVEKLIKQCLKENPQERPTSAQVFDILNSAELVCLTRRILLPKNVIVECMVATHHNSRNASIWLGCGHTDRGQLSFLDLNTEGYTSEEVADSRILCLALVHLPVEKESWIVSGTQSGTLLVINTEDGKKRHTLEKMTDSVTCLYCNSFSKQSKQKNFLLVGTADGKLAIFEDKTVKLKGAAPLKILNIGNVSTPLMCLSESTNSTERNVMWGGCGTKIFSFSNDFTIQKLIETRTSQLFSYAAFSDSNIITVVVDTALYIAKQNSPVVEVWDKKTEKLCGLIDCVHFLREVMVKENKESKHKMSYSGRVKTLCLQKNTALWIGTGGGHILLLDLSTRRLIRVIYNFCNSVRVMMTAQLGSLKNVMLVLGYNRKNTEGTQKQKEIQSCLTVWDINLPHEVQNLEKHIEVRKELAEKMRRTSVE
Chain of FGFR3 (human), P22607 [G697C] (P22607 whole entry G697C, looked up): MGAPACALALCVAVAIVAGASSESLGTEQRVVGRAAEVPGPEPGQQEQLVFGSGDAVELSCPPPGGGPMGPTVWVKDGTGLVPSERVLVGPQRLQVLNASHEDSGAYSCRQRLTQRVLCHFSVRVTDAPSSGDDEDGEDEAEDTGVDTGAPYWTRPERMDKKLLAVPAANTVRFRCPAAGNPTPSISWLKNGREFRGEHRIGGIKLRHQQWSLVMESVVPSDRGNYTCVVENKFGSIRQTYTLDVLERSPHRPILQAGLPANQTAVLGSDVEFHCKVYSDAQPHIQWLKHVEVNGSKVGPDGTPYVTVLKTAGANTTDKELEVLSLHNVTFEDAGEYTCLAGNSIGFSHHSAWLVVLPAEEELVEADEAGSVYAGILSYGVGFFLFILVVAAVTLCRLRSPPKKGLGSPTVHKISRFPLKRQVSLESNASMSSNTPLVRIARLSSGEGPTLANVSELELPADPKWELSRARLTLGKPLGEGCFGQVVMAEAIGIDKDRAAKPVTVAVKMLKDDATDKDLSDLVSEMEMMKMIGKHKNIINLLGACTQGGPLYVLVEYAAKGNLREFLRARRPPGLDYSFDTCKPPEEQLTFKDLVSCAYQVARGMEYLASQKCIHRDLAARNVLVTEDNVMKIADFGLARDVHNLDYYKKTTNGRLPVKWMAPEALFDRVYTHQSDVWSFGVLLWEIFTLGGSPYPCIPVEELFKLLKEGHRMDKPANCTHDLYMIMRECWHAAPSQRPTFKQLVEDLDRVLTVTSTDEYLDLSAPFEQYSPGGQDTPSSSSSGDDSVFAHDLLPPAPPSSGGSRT
Chain of BMX (human), P51813 [V600E] (P51813 whole entry, looked up, stated change not applied): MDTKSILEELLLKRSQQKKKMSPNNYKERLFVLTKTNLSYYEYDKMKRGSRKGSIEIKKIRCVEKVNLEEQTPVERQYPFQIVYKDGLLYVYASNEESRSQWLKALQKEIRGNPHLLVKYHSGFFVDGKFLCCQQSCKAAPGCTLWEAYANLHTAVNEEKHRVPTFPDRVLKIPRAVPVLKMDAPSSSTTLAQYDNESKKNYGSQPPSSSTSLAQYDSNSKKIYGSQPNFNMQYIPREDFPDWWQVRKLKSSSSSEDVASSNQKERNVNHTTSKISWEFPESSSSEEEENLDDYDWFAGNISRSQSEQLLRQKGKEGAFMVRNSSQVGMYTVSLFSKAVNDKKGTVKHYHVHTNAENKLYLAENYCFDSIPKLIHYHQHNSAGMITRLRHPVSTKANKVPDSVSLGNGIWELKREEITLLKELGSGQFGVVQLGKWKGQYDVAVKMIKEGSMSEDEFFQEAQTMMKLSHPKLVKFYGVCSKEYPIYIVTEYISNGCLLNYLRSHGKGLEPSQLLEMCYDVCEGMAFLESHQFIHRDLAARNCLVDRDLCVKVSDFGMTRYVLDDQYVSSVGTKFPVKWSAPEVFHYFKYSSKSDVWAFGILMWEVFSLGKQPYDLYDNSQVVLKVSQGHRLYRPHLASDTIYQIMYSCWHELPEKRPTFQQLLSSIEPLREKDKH

CCCS(=O)(=O)Nc1ccc(F)c(C(=O)c2c[nH]c3ncc(-c4ccc(Cl)cc4)cc23)c1F
kinase still bound, per cent of control [1]: 0.2% | kinase still bound, per cent of control [2]: 74% | kinase still bound, per cent of control [3]: 28% | kinase still bound, per cent of control [4]: 100% | kinase still bound, per cent of control [5]: 89% | kinase still bound, per cent of control [6]: 98% | kinase still bound, per cent of control [7]: 70% | kinase still bound, per cent of control [8]: 25% | kinase still bound, per cent of control [9]: 100% | kinase still bound, per cent of control [10]: 95% | kinase still bound, per cent of control [11]: 90%

N#Cc1c(NC(=O)c2cccc3ccccc23)sc2c1CCCC2
kinase still bound, per cent of control [1]: 93% | kinase still bound, per cent of control [4]: 83% | kinase still bound, per cent of control [12]: 80% | kinase still bound, per cent of control [5]: 87% | kinase still bound, per cent of control [6]: 85% | kinase still bound, per cent of control [7]: 94% | kinase still bound, per cent of control [8]: 100% | kinase still bound, per cent of control [9]: 100% | kinase still bound, per cent of control [10]: 70% | kinase still bound, per cent of control [13]: 100% | kinase still bound, per cent of control [11]: 90%

Cc1cc([C@@H](C)Nc2ccccc2C(=O)O)c2nc(N3CCOCC3)cc(=O)n2c1
kinase still bound, per cent of control [1]: 92% | kinase still bound, per cent of control [2]: 100% | kinase still bound, per cent of control [3]: 95% | kinase still bound, per cent of control [14]: 100% | kinase still bound, per cent of control [4]: 100% | kinase still bound, per cent of control [12]: 54% | kinase still bound, per cent of control [5]: 100% | kinase still bound, per cent of control [6]: 88% | kinase still bound, per cent of control [7]: 100% | kinase still bound, per cent of control [8]: 87% | kinase still bound, per cent of control [11]: 99%

O=C(NOC[C@H](O)CO)c1ccc(F)c(F)c1Nc1ccc(I)cc1F
kinase still bound, per cent of control [1]: 100% | kinase still bound, per cent of control [3]: 86% | kinase still bound, per cent of control [14]: 79% | kinase still bound, per cent of control [4]: 88% | kinase still bound, per cent of control [12]: 100% | kinase still bound, per cent of control [6]: 91% | kinase still bound, per cent of control [7]: 100% | kinase still bound, per cent of control [8]: 92% | kinase still bound, per cent of control [9]: 57% | kinase still bound, per cent of control [10]: 45% | kinase still bound, per cent of control [13]: 42% | kinase still bound, per cent of control [11]: 93%

CN(C)C/C=C/C(=O)Nc1cccc(Nc2ncc3c(n2)N(C)c2ccccc2C(=O)N3C)c1
kinase still bound, per cent of control [1]: 59% | kinase still bound, per cent of control [2]: 71% | kinase still bound, per cent of control [3]: 14% | kinase still bound, per cent of control [14]: 73% | kinase still bound, per cent of control [4]: 12% | kinase still bound, per cent of control [12]: 1.4% | kinase still bound, per cent of control [5]: 40% | kinase still bound, per cent of control [6]: 33% | kinase still bound, per cent of control [7]: 6.1% | kinase still bound, per cent of control [8]: 43% | kinase still bound, per cent of control [9]: 39% | kinase still bound, per cent of control [10]: 16% | kinase still bound, per cent of control [13]: 39% | kinase still bound, per cent of control [11]: 0.15%

COc1cc2ncnc(-n3nc(-c4ccccn4)nc3N)c2cc1OC
kinase still bound, per cent of control [1]: 23% | kinase still bound, per cent of control [2]: 44% | kinase still bound, per cent of control [3]: 24% | kinase still bound, per cent of control [14]: 55% | kinase still bound, per cent of control [4]: 100% | kinase still bound, per cent of control [12]: 3.4% | kinase still bound, per cent of control [5]: 33% | kinase still bound, per cent of control [6]: 12% | kinase still bound, per cent of control [7]: 41% | kinase still bound, per cent of control [8]: 44% | kinase still bound, per cent of control [9]: 48% | kinase still bound, per cent of control [10]: 17% | kinase still bound, per cent of control [13]: 36% | kinase still bound, per cent of control [11]: 54%

C=CC(=O)Nc1cccc(Nc2nc(N[C@H]3CC[C@H](N(C)C)CC3)nc3c2ncn3C(C)C)c1
kinase still bound, per cent of control [1]: 85% | kinase still bound, per cent of control [2]: 76% | kinase still bound, per cent of control [3]: 79% | kinase still bound, per cent of control [14]: 99% | kinase still bound, per cent of control [4]: 99% | kinase still bound, per cent of control [12]: 0.85% | kinase still bound, per cent of control [5]: 23% | kinase still bound, per cent of control [6]: 27% | kinase still bound, per cent of control [7]: 45% | kinase still bound, per cent of control [8]: 100% | kinase still bound, per cent of control [9]: 100% | kinase still bound, per cent of control [10]: 100% | kinase still bound, per cent of control [13]: 100% | kinase still bound, per cent of control [11]: 80%

CCN1CCN(C(=O)Cc2ccc(Nc3ncc(F)c(Nc4ccc(C(=O)Nc5ccccc5Cl)cc4)n3)cc2)CC1
kinase still bound, per cent of control [1]: 43% | kinase still bound, per cent of control [2]: 11% | kinase still bound, per cent of control [3]: 46% | kinase still bound, per cent of control [14]: 28% | kinase still bound, per cent of control [4]: 21% | kinase still bound, per cent of control [12]: 0.15% | kinase still bound, per cent of control [5]: 64% | kinase still bound, per cent of control [6]: 25% | kinase still bound, per cent of control [7]: 53% | kinase still bound, per cent of control [8]: 11% | kinase still bound, per cent of control [9]: 84% | kinase still bound, per cent of control [10]: 100% | kinase still bound, per cent of control [13]: 100% | kinase still bound, per cent of control [11]: 3.2%

COc1ccc(N(C(=O)Oc2c(C)cccc2C)c2ccnc(Nc3ccc(N4CCN(C)CC4)cc3)n2)c(OC)c1
kinase still bound, per cent of control [1]: 38% | kinase still bound, per cent of control [2]: 1% | kinase still bound, per cent of control [3]: 0.25% | kinase still bound, per cent of control [14]: 0% | kinase still bound, per cent of control [4]: 2.6% | kinase still bound, per cent of control [12]: 5.2% | kinase still bound, per cent of control [5]: 56% | kinase still bound, per cent of control [6]: 44% | kinase still bound, per cent of control [7]: 84% | kinase still bound, per cent of control [8]: 5.4% | kinase still bound, per cent of control [9]: 100% | kinase still bound, per cent of control [10]: 100% | kinase still bound, per cent of control [13]: 99% | kinase still bound, per cent of control [11]: 85%

C[C@@H](Oc1cc(-c2cnn(C3CCNCC3)c2)cnc1N)c1c(Cl)ccc(F)c1Cl
kinase still bound, per cent of control [4]: 27% | kinase still bound, per cent of control [12]: 11% | kinase still bound, per cent of control [5]: 35% | kinase still bound, per cent of control [6]: 50% | kinase still bound, per cent of control [7]: 57% | kinase still bound, per cent of control [9]: 100% | kinase still bound, per cent of control [10]: 48%

COCC(=O)NC/C=C/c1ccc2ncnc(Nc3ccc(Oc4ccc(C)nc4)c(C)c3)c2c1
kinase still bound, per cent of control [1]: 80% | kinase still bound, per cent of control [4]: 90% | kinase still bound, per cent of control [6]: 100% | kinase still bound, per cent of control [7]: 98% | kinase still bound, per cent of control [8]: 100% | kinase still bound, per cent of control [9]: 100% | kinase still bound, per cent of control [10]: 100% | kinase still bound, per cent of control [13]: 100% | kinase still bound, per cent of control [11]: 100%

O=C(O)c1ccc(Nc2ncc3c(n2)-c2ccc(Cl)cc2C(c2c(F)cccc2F)=NC3)cc1
kinase still bound, per cent of control [2]: 28% | kinase still bound, per cent of control [3]: 77% | kinase still bound, per cent of control [14]: 29% | kinase still bound, per cent of control [4]: 12% | kinase still bound, per cent of control [12]: 72% | kinase still bound, per cent of control [5]: 100% | kinase still bound, per cent of control [7]: 100% | kinase still bound, per cent of control [8]: 58% | kinase still bound, per cent of control [10]: 79% | kinase still bound, per cent of control [11]: 88%

Nc1ccc(-c2ccc3ncc4ccc(=O)n(-c5cccc(C(F)(F)F)c5)c4c3c2)cn1
kinase still bound, per cent of control [1]: 95% | kinase still bound, per cent of control [2]: 100% | kinase still bound, per cent of control [3]: 71% | kinase still bound, per cent of control [14]: 100% | kinase still bound, per cent of control [4]: 89% | kinase still bound, per cent of control [12]: 32% | kinase still bound, per cent of control [5]: 64% | kinase still bound, per cent of control [6]: 80% | kinase still bound, per cent of control [7]: 81% | kinase still bound, per cent of control [8]: 100% | kinase still bound, per cent of control [10]: 0% | kinase still bound, per cent of control [11]: 100%

CNC(=O)c1cc(Oc2ccc(NC(=O)Nc3ccc(Cl)c(C(F)(F)F)c3)cc2)ccn1
kinase still bound, per cent of control [1]: 0.05% | kinase still bound, per cent of control [4]: 39% | kinase still bound, per cent of control [12]: 3.2% | kinase still bound, per cent of control [5]: 59% | kinase still bound, per cent of control [6]: 36% | kinase still bound, per cent of control [8]: 83% | kinase still bound, per cent of control [11]: 0.1%

Cc1ccc2nc(NCCN)c3ncc(C)n3c2c1
kinase still bound, per cent of control [1]: 60% | kinase still bound, per cent of control [2]: 100% | kinase still bound, per cent of control [4]: 100% | kinase still bound, per cent of control [12]: 97% | kinase still bound, per cent of control [6]: 100% | kinase still bound, per cent of control [8]: 100% | kinase still bound, per cent of control [9]: 100% | kinase still bound, per cent of control [10]: 100% | kinase still bound, per cent of control [13]: 100% | kinase still bound, per cent of control [11]: 100%

NC(=O)Nc1cc(-c2cccc(F)c2)sc1C(=O)N[C@@H]1CCCNC1
kinase still bound, per cent of control [1]: 89% | kinase still bound, per cent of control [2]: 0.65% | kinase still bound, per cent of control [3]: 0.05% | kinase still bound, per cent of control [14]: 2.2% | kinase still bound, per cent of control [4]: 22% | kinase still bound, per cent of control [12]: 0.1% | kinase still bound, per cent of control [7]: 4.2% | kinase still bound, per cent of control [8]: 4.7% | kinase still bound, per cent of control [9]: 100% | kinase still bound, per cent of control [10]: 100% | kinase still bound, per cent of control [13]: 100% | kinase still bound, per cent of control [11]: 0%

CCN(CC)CCCCNc1ncc2cc(-c3cc(OC)cc(OC)c3)c(NC(=O)NC(C)(C)C)nc2n1
kinase still bound, per cent of control [1]: 100% | kinase still bound, per cent of control [4]: 3.7% | kinase still bound, per cent of control [12]: 100%

Reference: the kinase profiling compilation of Christmann-Franck et al. (2016)
